This is an account of results in patent US8530472B2, “Ethynyl derivatives” (Hoffmann-La Roche Inc., priority 2011, dated 2013).

Structures are written as SMILES.

The target of the first assay is T1, human mGlu5a receptor (Homo sapiens, UniProt P41594).
T1 construct: expressed in transfected cells
T1 sequence (P41594 21-1180 isoform P41594-2 limits assumed): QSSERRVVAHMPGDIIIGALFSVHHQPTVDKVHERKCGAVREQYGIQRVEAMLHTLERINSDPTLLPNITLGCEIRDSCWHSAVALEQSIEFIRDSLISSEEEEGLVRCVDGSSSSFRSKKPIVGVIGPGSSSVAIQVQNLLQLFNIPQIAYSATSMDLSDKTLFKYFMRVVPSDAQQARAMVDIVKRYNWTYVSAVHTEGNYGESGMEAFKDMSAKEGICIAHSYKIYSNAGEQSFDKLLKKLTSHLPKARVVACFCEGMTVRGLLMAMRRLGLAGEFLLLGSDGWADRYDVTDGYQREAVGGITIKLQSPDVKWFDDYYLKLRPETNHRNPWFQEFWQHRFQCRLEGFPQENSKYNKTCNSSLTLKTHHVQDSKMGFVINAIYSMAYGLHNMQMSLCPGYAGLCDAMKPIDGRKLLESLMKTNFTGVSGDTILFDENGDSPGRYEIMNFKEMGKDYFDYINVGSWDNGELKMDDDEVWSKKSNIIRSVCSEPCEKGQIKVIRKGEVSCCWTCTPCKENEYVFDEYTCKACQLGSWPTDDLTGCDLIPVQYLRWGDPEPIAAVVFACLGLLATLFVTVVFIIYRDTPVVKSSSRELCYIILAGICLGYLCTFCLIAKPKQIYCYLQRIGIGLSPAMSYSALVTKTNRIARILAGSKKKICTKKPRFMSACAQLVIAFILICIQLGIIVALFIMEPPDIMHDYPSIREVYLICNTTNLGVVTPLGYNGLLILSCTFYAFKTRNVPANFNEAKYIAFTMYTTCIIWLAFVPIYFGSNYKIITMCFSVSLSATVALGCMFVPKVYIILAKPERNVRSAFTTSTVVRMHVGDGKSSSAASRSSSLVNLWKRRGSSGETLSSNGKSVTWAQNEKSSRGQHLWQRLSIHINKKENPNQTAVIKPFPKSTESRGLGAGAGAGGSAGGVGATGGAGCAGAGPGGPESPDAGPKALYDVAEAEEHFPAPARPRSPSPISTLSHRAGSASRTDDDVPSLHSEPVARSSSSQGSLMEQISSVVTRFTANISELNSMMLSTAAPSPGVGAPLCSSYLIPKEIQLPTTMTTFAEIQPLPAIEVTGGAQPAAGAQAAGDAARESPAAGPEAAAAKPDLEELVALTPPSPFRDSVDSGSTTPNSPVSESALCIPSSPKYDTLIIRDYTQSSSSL
Kind of assay: Intracellular Ca2+ mobilization assay (mGlu5 PAM). It counts as cell-based. Particulars: HEK293; maximal response in % of the maximal stimulatory effect obtained with saturating concentrations of L-glutamate; HEK-293 human mGlu5a cells; read-out: Eff. (%). On the procedure:
A monoclonal HEK-293 cell line stably transfected with a cDNA encoding for the human mGlu5a receptor was generated; for the work with mGlu5 Positive Allosteric Modulators (PAMs), a cell line with low receptor expression levels and low constitutive receptor activity was selected to allow the differentiation of agonistic versus PAM activity. Cells were cultured according to standard protocols (Freshney, 2000) in Dulbecco's Modified Eagle Medium with high glucose supplemented with 1 mM glutamine, 10% (vol/vol) heat-inactivated bovine calf serum, Penicillin/Streptomycin, 50 μg/ml hygromycin and 15 μg/ml blasticidin (all cell culture reagents and antibiotics from Invitrogen, Basel, Switzerland).
About 24 hrs before an experiment, 5×10^4 cells/well were seeded in poly-D-lysine coated, black/clear-bottomed 96-well plates. The cells were loaded with 2.5 μM Fluo-4AM in loading buffer (1×HBSS, 20 mM HEPES) for 1 hr at 37° C. and washed five times with loading buffer. The cells were transferred into a Functional Drug Screening System 7000 (Hamamatsu, Paris, France), and 11 half logarithmic serial dilutions of test compound at 37° C. were added and the cells were incubated for 10-30 min. with on-line recording of fluorescence. Following this pre-incubation step, the agonist L-glutamate was added to the cells at a concentration corresponding to EC20 (typically around 80 μM) with on-line recording of fluorescence; in order to account for day-to-day variations in the responsiveness of cells, the EC20 of glutamate was determined immediately ahead of each experiment by recording of a full dose-response curve of glutamate.
Responses were measured as peak increase in fluorescence minus basal (i.e. fluorescence without addition of L-glutamate), normalized to the maximal stimulatory effect obtained with saturating concentrations of L-glutamate. Graphs were plotted with the % maximal stimulatory using XLfit, a curve fitting program that iteratively plots the data using Levenburg Marquardt algorithm. The single site competition analysis equation used was y=A+((B−A)/(1+((x/C)D))), where y is the % maximal stimulatory effect, A is the minimum y, B is the maximum y, C is the EC50, x is the log 10 of the concentration of the competing compound and D is the slope of the curve (the Hill Coefficient). From these curves the EC50 (concentration at which half maximal stimulation was achieved), the Hill coefficient as well as the maximal response in % of the maximal stimulatory effect obtained with saturating concentrations of L-glutamate were calculated.
A depression of the signal observed after addition of the EC20 concentration of L-glutamate was indicative of an inhibitory activity of the test compound.
Turning to `CCCC(=O)Nc1ccc(C#Cc2ccccc2)cn1` [Example 2, N-(5-Phenylethynyl-pyridin-2-yl)-butyramide], the Emax is 52%.
On to `CC(C)CC(=O)Nc1ccc(C#Cc2ccccc2)cn1` [Example 4, 3-Methyl-N-(5-phenylethynyl-pyridin-2-yl)-butyramide], for which the Emax was 83%.
Take `CC(C)(C)C(=O)Nc1ccc(C#Cc2cccc(Cl)c2)nn1` [Example 16, N-[6-(3-Chloro-phenylethynyl)-pyridazin-3-yl]-2,2-dimethyl-propionamide]: the Emax turned out to be 45%.
The same measure, in the same setting: the same measure for `CC(C)(C)C(=O)Nc1ccc(C#Cc2ccccc2)nn1` [Example 9, 2,2-Dimethyl-N-(6-phenylethynyl-pyridazin-3-yl)-propionamide]: 73%; for `CCCC(C)C(=O)Nc1ccc(C#Cc2ccccc2)cn1` (racemic) [Example 5, (RS)-2-Methyl-pentanoic acid (5-phenylethynyl-pyridin-2-yl)-amide]: 75%; for `COC(C)(C)C(=O)Nc1ccc(C#Cc2ccccc2)cn1` [Example 12, 2-Methoxy-2-methyl-N-(5-phenylethynyl-pyridin-2-yl)-propionamide]: 68%.
For `CC(C)(C)C(=O)Nc1ccc(C#Cc2ccccc2)cn1` [Example 1, 2,2-Dimethyl-N-(5-phenylethynyl-pyridin-2-yl)-propionamide], the Emax was 72%.
The same measure, in the same setting: the same measure for `COC(C)(C)C(=O)Nc1ccc(C#Cc2cc(F)ccc2F)cn1` [Example 14, N-[5-(2,5-Difluoro-phenylethynyl)-pyridin-2-yl]-2-methoxy-2-methyl-propionamide]: 47%; for `CSCC(=O)Nc1ccc(C#Cc2ccccc2)cn1` [Example 6, 2-Methylsulfanyl-N-(5-phenylethynyl-pyridin-2-yl)-acetamide]: 47%.
Still for that read-out and setting: the same measure for `CC(C)(C(=O)Nc1ccc(C#Cc2cccc(Cl)c2)cn1)C(F)(F)F` [Example 15, N-[5-(3-Chloro-phenylethynyl)-pyridin-2-yl]-3,3,3-trifluoro-2,2-dimethyl-propionamide]: 46%; for `CC(C)(C)C(=O)Nc1ncc(C#Cc2ccccc2)cn1` [Example 7, 2,2-Dimethyl-N-(5-phenylethynyl-pyrimidin-2-yl)-propionamide]: 59%; for `CCCCC(=O)Nc1ccc(C#Cc2ccccc2)cn1` [Example 3, Pentanoic acid (5-phenylethynyl-pyridin-2-yl)-amide]: 84%.
Still for that read-out and setting: under `COC(C)(C)C(=O)Nc1ccc(C#Cc2cccc(F)c2)cn1` [Example 13, N-[5-(3-Fluoro-phenylethynyl)-pyridin-2-yl]-2-methoxy-2-methyl-propionamide] stands 54%; under `CC(C)(C)C(=O)Nc1ccc(C#Cc2cccc(F)c2)cn1` [Example 11, N-[5-(3-Fluoro-phenylethynyl)-pyridin-2-yl]-2,2-dimethyl-propionamide], 44%.
On to `COCC(=O)Nc1ccc(C#Cc2ccccc2)cn1` [Example 10, 2-Methoxy-N-(5-phenylethynyl-pyridin-2-yl)-acetamide], for which the Emax came out at 43%.
Same read-out and setting: under `CN(C(=O)C(C)(C)C)c1ncc(C#Cc2ccccc2)cn1` [Example 8, 2,2,N-Trimethyl-N-(5-phenylethynyl-pyrimidin-2-yl)-propionamide] stands 74%.

The same assay, now with this note: HEK-293 cells stably transfected with human mGlu5a receptor; L-glutamate added at EC20 (typically around 80 μM) after 10-30 min pre-incubation with test compound; read-out: EC50 (nM) mGlu5PAM.
In general, EC50 refers to the midpoint of the concentration-response curve. Turning to `CCCC(=O)Nc1ccc(C#Cc2ccccc2)cn1` [Example 2, N-(5-Phenylethynyl-pyridin-2-yl)-butyramide], the EC50 was found to be 70 nM.
On the same count and under the same terms, the same measure for `CC(C)CC(=O)Nc1ccc(C#Cc2ccccc2)cn1` [Example 4, 3-Methyl-N-(5-phenylethynyl-pyridin-2-yl)-butyramide]: 71 nM.
`CC(C)(C)C(=O)Nc1ccc(C#Cc2cccc(Cl)c2)nn1` [Example 16, N-[6-(3-Chloro-phenylethynyl)-pyridazin-3-yl]-2,2-dimethyl-propionamide]: the EC50 was determined as 7 nM.
The same measure, in the same setting: under `CC(C)(C)C(=O)Nc1ccc(C#Cc2ccccc2)nn1` [Example 9, 2,2-Dimethyl-N-(6-phenylethynyl-pyridazin-3-yl)-propionamide] stands 6 nM; under `CCCC(C)C(=O)Nc1ccc(C#Cc2ccccc2)cn1` (racemic) [Example 5, (RS)-2-Methyl-pentanoic acid (5-phenylethynyl-pyridin-2-yl)-amide], 48 nM.
Still for that read-out and setting: under `COC(C)(C)C(=O)Nc1ccc(C#Cc2ccccc2)cn1` [Example 12, 2-Methoxy-2-methyl-N-(5-phenylethynyl-pyridin-2-yl)-propionamide] stands 77 nM; under `CC(C)(C)C(=O)Nc1ccc(C#Cc2ccccc2)cn1` [Example 1, 2,2-Dimethyl-N-(5-phenylethynyl-pyridin-2-yl)-propionamide], 19 nM; under `COC(C)(C)C(=O)Nc1ccc(C#Cc2cc(F)ccc2F)cn1` [Example 14, N-[5-(2,5-Difluoro-phenylethynyl)-pyridin-2-yl]-2-methoxy-2-methyl-propionamide], 94 nM.
Same read-out and setting: the same measure for `CSCC(=O)Nc1ccc(C#Cc2ccccc2)cn1` [Example 6, 2-Methylsulfanyl-N-(5-phenylethynyl-pyridin-2-yl)-acetamide]: 18 nM; for `CC(C)(C(=O)Nc1ccc(C#Cc2cccc(Cl)c2)cn1)C(F)(F)F` [Example 15, N-[5-(3-Chloro-phenylethynyl)-pyridin-2-yl]-3,3,3-trifluoro-2,2-dimethyl-propionamide]: 19 nM; for `CC(C)(C)C(=O)Nc1ncc(C#Cc2ccccc2)cn1` [Example 7, 2,2-Dimethyl-N-(5-phenylethynyl-pyrimidin-2-yl)-propionamide]: 56 nM.
On to `CCCCC(=O)Nc1ccc(C#Cc2ccccc2)cn1` [Example 3, Pentanoic acid (5-phenylethynyl-pyridin-2-yl)-amide], for which the EC50 worked out at 48 nM.
For the compound `COC(C)(C)C(=O)Nc1ccc(C#Cc2cccc(F)c2)cn1` [Example 13, N-[5-(3-Fluoro-phenylethynyl)-pyridin-2-yl]-2-methoxy-2-methyl-propionamide], the EC50 stood at 85 nM.
In the case of `CC(C)(C)C(=O)Nc1ccc(C#Cc2cccc(F)c2)cn1` [Example 11, N-[5-(3-Fluoro-phenylethynyl)-pyridin-2-yl]-2,2-dimethyl-propionamide], the EC50 is 15 nM.
As to `COCC(=O)Nc1ccc(C#Cc2ccccc2)cn1` [Example 10, 2-Methoxy-N-(5-phenylethynyl-pyridin-2-yl)-acetamide], the 50% effective concentration (EC50) came out at 49 nM.
Same read-out and setting: the same measure for `CN(C(=O)C(C)(C)C)c1ncc(C#Cc2ccccc2)cn1` [Example 8, 2,2,N-Trimethyl-N-(5-phenylethynyl-pyrimidin-2-yl)-propionamide]: 52 nM.
